Here are results for 91 compounds from a melting point compilation (Tetko et al.; mined from patent text by program, amines drawn as free bases though some values may be those of a salt).

Structures are written as SMILES. Bounds are passed on as bounds.

With `OCC1(n2nc3ccccc3n2)OCC1c1ccccc1` (stereo unspecified), the melting point is 119 to 123 °C. The result for `OC(=Cc1ccccc1)C(O)C(O)C(O)C(O)C(O)=Cc1ccccc1` (stereo unspecified) reads 210 °C.

In the case of `CC(C)(C)c1cc(N2Cc3ccccc3C2=O)cc(C(C)(C)C)c1O`, the melting point lay within 205 to 207 °C.

`O=C(Nc1ccc(C(=O)N2Cc3cccn3Cc3ccccc32)cc1)c1sc2ccccc2c1Cl` registered a melting point of 220 to 222 °C. On to `CC(=O)Nc1ccc(OC(C)C(=O)O)cc1` (stereo unspecified), for which the melting point lay in the range of 170 to 172 °C. Turning to `CCCCCC1=CCC(c2cc(F)c(C(=O)O)c(F)c2)C=C1` (stereo unspecified), the melting point is 65 °C. With `NS(=O)(=O)c1ccc(-n2nc(CC(=O)O)cc2-c2ccc(Cl)cc2)cc1`, the melting point was in the range of 120 to 122 °C. The compound `Clc1ccc2c(NCCCN3CCCCC3)ccnc2c1` showed a melting point of 113 to 116 °C.

`COc1ccc(C)c(N2CCN(C(=O)Nc3cc4ccccc4nc3OC)CC2)c1` registered a melting point of 128 to 130 °C. `Cc1[nH]c(=O)n(CCC(C(=O)NO)N(C)S(=O)(=O)c2ccc(Oc3ccccc3)cc2)c(=O)c1F` (stereo unspecified) displayed a melting point of 196 to 198 °C.

As for `O=C(NC1CCC(OCc2ccccc2)CC1)NC12CC3CC(CC(C3)C1)C2` (stereo unspecified), the melting point came out at 181 °C.

Regarding `CCOCc1nc2c(N)nc3cc(OCc4cccc(OC)c4)ccc3c2n1CC(C)(C)NS(C)(=O)=O`, the melting point is 221 to 222 °C. `COc1cccc(C(=O)O)c1-c1ccccc1OC(C)C`: the melting point is 139 to 140 °C. Compound `CC(=O)Oc1cc2ccccc2cc1C(=O)O` displayed a melting point of 185 to 186 °C. For `Cc1cncn1Cc1cc(C(C)(C)O)cc(C(C)(C)C#N)c1` the value was 128 to 131 °C. As for `CCCc1oc(-c2ccccc2)nc1COc1ccc(C=O)cc1`, the melting point fell in the range of 76 to 77 °C.

On to `O=C(Nc1ccc(C[C@H](NS(=O)(=O)NCC2CCCCC2)C(=O)O)cc1)c1c(Cl)cncc1Cl`, for which the melting point came to 196 °C.

With `N#Cc1c(Cl)[nH]c(-c2ccc(Cl)c(Cl)c2)c1Cl`, the melting point was > 200 °C. `O=C1C=C(O[C@@H]2c3cc(C(F)(F)C(F)(F)F)ccc3OC(CF)(CF)[C@H]2O)CC1` (relative stereo) came in with a melting point of 165 to 167 °C. The result for `Cc1c(C=CCO)[nH]c(=O)c2c1ccc1nc(Nc3c(Cl)cccc3Cl)n(C)c12` reads 298 to 300 °C; that for `COc1ccc(C(C#N)Nc2ccc(S(C)(=O)=O)cc2)cc1` (stereo unspecified), 131 to 132 °C; that for `O=C(O)CNc1nc(NCc2ccc(NC(=O)c3ccc(F)cc3)cc2)c2ccccc2n1`, 235 °C. `O=C1OCc2ccc(CO)cc21`: the melting point was 107 to 108 °C. `Clc1ccc2c(c1)Cc1cc(Cl)ccc1OCCOCCOCCOCCO2` gave a melting point of 144 °C.

In the case of `C=CCN1C(=O)c2ccccc2Oc2nc(Cl)ccc21`, the melting point was 110 to 112 °C. For `COc1ccc(C(=C(c2ccccc2)C(F)(F)F)c2ccc(F)cc2)cc1` the value was 52 to 56 °C; for `CCOC(=O)c1nccn1Cc1ccc(Cl)cc1N`, 94 to 96 °C.

`CC#Cc1ccc(C2CCC(C3CCC(CCC)CC3)CC2)cc1` (stereo unspecified): the melting point was 82 °C. `CCOC(=O)c1ccc(CCNS(=O)(=O)c2ccc(Cl)cc2)cc1` yielded a melting point of 88 °C. With `Cn1ncc2c(=O)n3c(nc21)SCC3`, the melting point fell in the range of 257 to 258 °C. With `COCCOc1nc(C)nc(N2CCC(c3ccc(F)cc3)CC2)c1[N+](=O)[O-]`, the melting point lay in the range of 45 to 48 °C. The result for `CN1C(=O)C(N)=C(C#N)C1=O` reads 284 °C. Take `CCOP(=O)(C[C@H]1CCN[C@@H](C(N)=O)C1)OCC` (relative stereo): the melting point is 155 to 158 °C.

In the case of `COc1cc(-c2snnc2C)cc2oc(=O)c(C)c(C)c12`, the melting point is 204 to 206 °C. Compound `N#Cc1cccc(C(=O)Nc2cccc(-c3cccc4c3/C(=C/c3ccc[nH]3)C(=O)N4)c2)c1` showed a melting point of 250 to 251 °C.

As for `CN1CCN(Cc2ccc(-c3cc4ncc(C#N)c(Nc5ccc(Oc6ccccc6)cc5)c4s3)cc2)CC1`, the melting point was in the range of 199 to 201 °C.

Regarding `CNC(=S)N(C)Cc1cccnc1`, the melting point lay within 86 to 87 °C. The compound `CS(=O)CCNC(=O)c1cccc(-c2ccc3c(c2)C(Oc2ccc(Cl)cc2Cl)CC3)c1` (stereo unspecified) showed a melting point of 149 to 150 °C. The result for `O=C(Cn1cnc2cc(-c3ccc(Cl)cc3)sc2c1=O)c1ccc2c(c1)CCN(C(=O)C(F)(F)F)CC2` reads 285 to 287 °C; that for `O=C1CCC(c2ccccc2)(c2ccccc2)[C@@H]2CN(C(=S)Cc3ccccc3)C[C@H]12` (racemic), 221 °C; that for `O=C(CCl)Nc1cc(Br)cc([N+](=O)[O-])c1NC(=O)CCl`, 172 to 173 °C. Take `Nc1ccc(SCC2CCCCC2)cc1[N+](=O)[O-]`: the melting point fell in the range of 80 to 82 °C. For the compound `Cc1ccc2c(O)cc(=O)oc2c1C`, the melting point was 186 to 190 °C. The compound `CC1(C)Oc2ccc(C=O)cc2C(N2CCCC2=O)C1O` (stereo unspecified) displayed a melting point of 196 to 198 °C. Take `COc1ccc(-c2cc(=Nc3c(C)cc(C)cc3C)n(C)c(=O)n2CC(=O)O)cc1OC`: the melting point lay within 148 to 150 °C. `Oc1ccc2c(c1)OC(c1ccc(OCCN3CCCCC3)cc1)c1c-2ccc2cc(O)ccc12` (stereo unspecified) showed a melting point of 158 to 161 °C. As to `CC1(C)CCC(C)(C)c2cc(-c3cc(-c4ccc(C(=O)O)cc4)ccc3OCCCCCCCO)ccc21`, the melting point fell in the range of 168 to 172 °C. `CN1CCC(N2C(=O)CN=C(c3ccccc3Cl)c3cc(Cl)ccc32)CC1` came in with a melting point of 146 to 147 °C. For `COc1ccc(Cc2c(C)c3c(N)nc(N)nc3[nH]c2=O)cc1OC` the value was 346 to 348 °C; for `CSC1CC(=O)N1CC(=O)CS(=O)(=O)c1ccccc1` (stereo unspecified), 82 to 84 °C; for `Nc1cc(OC(F)(F)C(F)Cl)c(OC(F)(F)C(F)Cl)cc1N` (stereo unspecified), 58 to 60 °C. The compound `CCn1cc(C(=O)O)c(=O)c2cc(F)c(N3CCN(C(C)=O)CC3)cc21` registered a melting point of 300 °C. The result for `COC(=O)c1cc(-c2ccccc2)sc1Nc1ccc(F)cc1[N+](=O)[O-]` reads 150 °C; that for `CC1(C)CCC[C@H](NC(c2ccccc2)(c2ccccc2)c2ccccc2)C(=O)N1`, 139 to 140 °C; that for `C=C(C(=O)OC)C(=O)c1ccc(OC)cc1`, 75 to 76 °C. In turn, `Cc1cc(C2=CCN(CCCC(=O)c3ccc(F)cc3)CC2)on1` displayed a melting point of 96 to 98 °C.

With `CS(=O)c1ccc2ncn(C=CC(=O)O)c(=O)c2c1` (stereo unspecified), the melting point was in the range of 275 to 276 °C. Regarding `Nc1cc(-n2cc(C(=O)O)c(=O)c3cc(F)c(Cl)nc32)c(F)cc1F`, the melting point was > 270 °C.

In the case of `CCCCc1nc2c(N)nc3ccccc3c2n1CCCNC(=O)NC1CCCCC1`, the melting point lay within 200 to 201 °C. Turning to `COc1ccc(CCNC(=O)Nc2ccccc2CCc2cc(C(C)(C)C)c(O)c(C(C)(C)C)c2)cc1OC`, the melting point was 158 to 160 °C. The compound `C[C@@H](O)CNC(=O)N1CC(c2ccc(C(F)(F)F)cc2)C1` returned a melting point of 107 to 108 °C. For `CSC(C)=NOC(=O)NCSN(C(C)(C)C)P1(=O)OCC(C)(C)CO1` the value was 134 °C; for `CCCCCCCCCCS(=O)(=O)Oc1c(I)cc(I)cc1I`, 71 to 72 °C. As for `COc1cc2c(cc1OCc1ccccc1)CCN(Cc1ccc(C#N)cc1)C2`, the melting point was in the range of 161 to 162 °C. `CC(C)(Cc1c[nH]c2ccccc12)NCC(O)COc1ccccc1Cl` (stereo unspecified): the melting point lay in the range of 150 to 154 °C. For the compound `CCCCCCCC/C=C\c1ccc(C(=O)NOCc2ccccc2)cc1`, the melting point is 70 to 71 °C. `C=CC(=O)NCC(=O)O` showed a melting point of 124 to 126 °C. For `CN=C(NC#N)Oc1ccccc1` the value was 132 to 133 °C. Regarding `CCOC(=O)/C=C(C)/C(F)=C/C=C(C)/C=C/c1c(C)sc(C)c1C`, the melting point was in the range of 73 to 75 °C.

Consider `CC(=O)ON1C(C)(C)NC(=O)C1(C)C`, for which the melting point lay within 188 to 190 °C. The result for `COc1ccc(C#CC(C)N(O)C(N)=O)cc1` (stereo unspecified) reads 144 to 146 °C. In turn, `CCCC(=Cc1cccs1)[N+](=O)[O-]` displayed a melting point of 25 to 25.5 °C. Turning to `C=C1CC2(CN3CCC2CC3)SC1C` (stereo unspecified), the melting point lay within 164 to 168 °C. On to `CCOC(=O)C(C)Oc1ncn(-c2ccc(OC)cc2)n1` (stereo unspecified), for which the melting point lay in the range of 62 to 64 °C. Take `OCc1c(C(F)(F)F)nn2ccc3c(c12)CCO3`: the melting point was 151 to 153 °C. In turn, `CCCCCCCCCCCCCCCCNc1ccc(C(=O)NS(=O)(=O)c2ccc(N)cc2)cc1` displayed a melting point of 193 to 196 °C.

`CNC1=NS(=O)(=O)N=C1NCCSCc1csc(N)n1` came in with a melting point of 200 to 201 °C.

`O=C1COc2cc3[nH]c(C(=O)N4CCC(Cc5ccccc5)CC4)cc3cc2N1`: the melting point lay within 225 to 231 °C.

For the compound `Cc1ncc2n1-c1ccccc1C(c1ccccc1)=NC2`, the melting point lay in the range of 180 to 182 °C. Turning to `CCCCCCC1=C(O)C(=O)CO1`, the melting point lay in the range of 51 to 52 °C. With `O=[PH]1Cc2ccc3ccccc3c2-c2c(ccc3ccccc23)C1`, the melting point was 242 to 246 °C.

For `Cc1oc(-c2ccccc2)nc1COc1ccc(CCCC2SC(=O)NC2=O)cc1C(F)(F)F` (stereo unspecified), the melting point fell in the range of 154 to 155 °C. Consider `CCOCc1cc(N2C(=O)C3=C(CCCC3)C2=O)c(F)cc1Cl`, for which the melting point was in the range of 89 to 91 °C.

With `O=S(=O)(O)CC(O)CNCC(O)O` (stereo unspecified), the melting point was 189 to 190 °C.

`CC(CC(=O)Nc1c(Cl)ccc2nc(CCCNCCCO)ccc12)c1ccccc1` (stereo unspecified) gave a melting point of 118 to 120 °C.

Compound `COc1ccc(-c2cc(=Nc3c(C)cc(C)cc3C)n(C)c(C)n2)cc1OC` had a melting point of 163 to 168 °C. In turn, `NNc1ncnc(Nc2ccc(F)c(C(F)(F)F)c2)n1` came in with a melting point of 181 to 182 °C. `Cc1sc2nc(SCCCN3CCN(c4nc5ccccc5s4)CC3)n(N)c(=O)c2c1C`: the melting point lay within 200 to 201 °C.

Take `CN1CCN(C2=Nc3ccccc3Sc3nccn32)CC1`: the melting point was 145 to 147 °C. In the case of `O=C(O)c1ccc(-c2nc(-c3cccnc3)cs2)cc1`, the melting point was in the range of 303 to 304 °C. For `N#CC(=Cc1ccc[nH]1)C(=O)O` the value was 213 °C.

A word on the melting point: it is the temperature, or range, at which the solid turns liquid.
